Activity calls are given as the source filed them. Cut-off read from the data, not from the text of the source: actives have a measured IC50 and inactives only a lower limit.
target: Envelope glycoprotein gp160 (Human immunodeficiency virus 1, UniProt Q6QLK5); assay: cell-free HIV fusion peptide-binding blockers – biochemical, uHTS, fluorescence dequenching, […] (AID 1986)
Sequence (Q6QLK5 whole entry, the tested form may be a part): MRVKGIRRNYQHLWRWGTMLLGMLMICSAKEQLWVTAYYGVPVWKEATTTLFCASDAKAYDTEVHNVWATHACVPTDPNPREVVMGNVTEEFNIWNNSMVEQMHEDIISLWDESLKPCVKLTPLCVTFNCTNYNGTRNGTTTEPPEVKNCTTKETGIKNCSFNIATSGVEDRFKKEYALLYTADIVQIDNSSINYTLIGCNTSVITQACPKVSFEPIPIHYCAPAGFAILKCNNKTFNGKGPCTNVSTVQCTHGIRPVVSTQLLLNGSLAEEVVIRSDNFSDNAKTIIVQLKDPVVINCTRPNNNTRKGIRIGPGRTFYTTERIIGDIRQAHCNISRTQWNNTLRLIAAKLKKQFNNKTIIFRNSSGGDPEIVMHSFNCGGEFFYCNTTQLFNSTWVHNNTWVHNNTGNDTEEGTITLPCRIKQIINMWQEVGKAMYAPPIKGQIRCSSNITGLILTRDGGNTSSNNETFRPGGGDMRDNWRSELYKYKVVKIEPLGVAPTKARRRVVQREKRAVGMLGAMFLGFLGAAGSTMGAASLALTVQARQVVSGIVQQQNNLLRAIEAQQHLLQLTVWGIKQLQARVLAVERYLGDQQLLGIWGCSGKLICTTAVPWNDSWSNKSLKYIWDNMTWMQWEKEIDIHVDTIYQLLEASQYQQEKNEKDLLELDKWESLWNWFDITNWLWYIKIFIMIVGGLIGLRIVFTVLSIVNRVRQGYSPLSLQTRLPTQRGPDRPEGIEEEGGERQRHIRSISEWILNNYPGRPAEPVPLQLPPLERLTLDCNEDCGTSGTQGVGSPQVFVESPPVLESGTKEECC

SMILES	IC50
CC(C(=O)Nc1ccc(O)c(C(=O)O)c1)N1C(=O)/C(=C/c2cccs2)SC1=S (stereo not drawn)	18.8 µM (active)
O=C1NC(=O)/C(=C/c2ccc(-c3cc(C(=O)O)ccc3Cl)o2)S1	25.8 µM (active)
COCCN1C(=O)/C(=C/c2ccc(OCc3ccc(C(=O)O)cc3)c(OC)c2)S/C1=N\c1ccccc1	15.1 µM (active)
